The target of this assay is T1, human OX2R (Homo sapiens, UniProt O43614).
T1 construct: expressed in transfected cells; host or cells: CHO (Chinese hamster ovary) cells, grown under G418 selection
T1 sequence (O43614 1-444): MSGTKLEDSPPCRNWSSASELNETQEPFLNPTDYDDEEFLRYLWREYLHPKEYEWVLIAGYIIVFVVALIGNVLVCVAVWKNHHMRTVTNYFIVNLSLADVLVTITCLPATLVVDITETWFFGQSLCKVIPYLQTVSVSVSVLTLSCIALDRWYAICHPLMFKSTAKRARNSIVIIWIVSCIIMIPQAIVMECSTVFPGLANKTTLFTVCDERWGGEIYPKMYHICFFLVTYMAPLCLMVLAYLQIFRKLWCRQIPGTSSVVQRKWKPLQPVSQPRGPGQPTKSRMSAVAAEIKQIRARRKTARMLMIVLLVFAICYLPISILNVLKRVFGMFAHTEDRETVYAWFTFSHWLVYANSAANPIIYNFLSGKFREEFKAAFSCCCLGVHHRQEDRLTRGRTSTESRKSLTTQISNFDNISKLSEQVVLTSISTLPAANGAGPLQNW
The assay is described as follows: IPOne (IP-1) orexin receptor agonist assay in CHO cells expressing human OX2R. Type of assay: cell-based. To be noted: for IC50: IPOne assay, CHO cells expressing human OX2R, 2 hours incubation, read-out: hoX2R_IP IC50; for Emax: CHO, percent of mean max effect of a reference compound at 1 uM with 100% activity vs Orexin A, human OX2R. An excerpt: The utility of the compounds in accordance with the present invention as orexin receptor OX1R and/or OX2R agonists may be readily determined without undue experimentation by methodology well known in the art. Both the OX1R and/or OX2R G-coupled protein receptors (GPCRs) couple through the Gaq signaling pathway, which ultimately promotes calcium mobilization via inositol triphosphate (IP3) production. The half-life of IP-3 is relatively short, being rapidly metabolized to inositol monophosphate (IP-1), which can be readily detected using a commercially available assay kit (IP-One; Cisbio; cat #621PAPEC) coupled with a cell line expressing the target receptor(s) of interest. The utility of the compounds in accordance with the present invention as orexin receptor OX1R and/or OX2R agonists may be determined utilizing this assay.
In a typical experiment, the OX1 and OX2 receptor agonist activity is determined in accordance with the following general experimental method. Chinese hamster ovary (CHO) cells expressing human OX1R and/or the human OX2R were grown in Iscove's modified DMEM containing glutaMAX™, 1% G418, 100 U/mL penicillin, 100 μg/mL streptomycin and 10% heat-inactivated qualified fetal bovine serum (FBS). The OX2R cells were seeded at 10,000 cells/well/50 μL and the OX1R cells were seeded at 20,000 cells/well/50 μL into 384-well white tissue culture plates (Greiner; cat #781080). All cell/media reagents were from GIBCO-Invitrogen Corp. The seeded cell plate(s) were incubated at 37° C. with 5% CO2 and 85% humidity for 20-24 hours. On the day of the assay, assay-ready compound plates were prepared using an acoustic liquid handler (ECHO; Labcyte), which dispensed sufficient volume of test compound stock (10 mM in DMSO) or 100% DMSO to prepare 10 point, ½-log dilutions in a final volume of 202.5 nL/well in all test wells of a 384-well diamond plate (Labcyte). Following completion of assay-ready plates, importantly, the next three steps were performed with minimal delay: 1) 20 μl of 1×stimulation buffer was added to the compound plate using a Multidrop Combi (small cassette, Thermo Fisher Scientific cat #24073290); 2) culture medium was removed from the cell plate using the Bluewasher plate washer (gentle spin; BlueCatBio); 3) 14 μl of compound/stimulation buffer mixture was added to the cell plate using a Bravo liquid handler (Agilent) prior to incubating cell plates at 37° C. with 5% CO2 and 85% humidity for 1 or 2 hours (OX1R and OX2R, respectively). During this incubation, IP-one detection reagents were prepared (38:1:1 lysis buffer:D2:AB-cryptate reagents). Six μL of mixed detection reagents were added to the cell plate using a Multidrop Combi (small cassette, Thermo Fisher Scientific cat #24073290) and incubated 60 minutes at room temperature in the dark. Fluorescence signal was detected using an Envision plate reader (Perkin Elmer) [LANCE/DELFIA Dual Enh (Em: APC 665; Ex: Cy5 620)].
For each compound, data were fit to a four parameter logistic fit (ActivityBase software) and the EC50 was reported as the inflection point of the resulting curve. Percent effect for each test compound was determined as the percentage of sample raw value/mean max effect, where the mean max effect was derived from the mean raw value of 32 control wells per assay plate (using Orexin A (cat #003-30) at 1 μM for human OX1R and a reference compound at 1 uM with 100% activity previously established by comparison to Orexin A for human OX2R). The intrinsic orexin receptor agonist activity of a compound which may be used in the present invention may be determined by these assays.

Consider `COC(=O)N1[C@@H]2COC[C@@H]2C(NS(C)(=O)=O)[C@@H]1COC1CCC2(c3ncc(F)cn3)CC2C1` (mixture of isomers) [Example 134, methyl (2R,3aS,6aS)-2-(((6-(5-fluoropyrimidin-2-yl)bicyclo[4.1.0]heptan-3-yl)oxy)methyl)-3-(methylsulfonamido)hexahydro-1H-furo[3,4-b]pyrrole-1-carboxylate], for which the IC50 (usually the concentration that inhibits the measured activity by half) was determined as 83.7 nM.

`COC(=O)N1[C@H](C)C[C@H](NS(=O)(=O)N(C)C)[C@@H]1COC1CCC2(c3cccc(F)c3)CC2C1` (mixture of isomers) [Example 3, methyl (2R,3S,5R)-3-((N,N-dimethylsulfamoyl)amino)-2-(((6-(3-fluorophenyl)bicyclo[4.1.0]heptan-3-yl)oxy)methyl)-5-methylpyrrolidine-1-carboxylate]: the IC50 turned out to be 187 nM.

On to `COC(=O)N1CC[C@H](NS(C)(=O)=O)[C@@H]1COC1CCC2(c3ncccn3)CC2C1` (mixture of isomers) [Example 21, methyl (2R,3S)-3-(methylsulfonamido)-2-(((6-(pyrimidin-2-yl)bicyclo[4.1.0]heptan-3-yl)oxy)methyl)pyrrolidine-1-carboxylate], for which the Emax (commonly the maximal effect, on the per cent scale that the assay sets) turned out to be 94.6% and the half-maximal inhibitory concentration (IC50) amounted to 1620 nM.

For `COC(=O)N1[C@H](C)C[C@H](NS(=O)(=O)N(C)C)[C@@H]1COC1CCC2(c3cnccn3)CC2C1` (single isomer, unassigned) [Example 11], the half-maximal inhibitory concentration (IC50) was found to be 146 nM.

`COC(=O)N1[C@H](C)C[C@H](NS(=O)(=O)N(C)C)[C@@H]1COC1CCC2(c3cnccn3)CC2C1` (single isomer, unassigned) [Example 14]: the concentration for half-maximal inhibition (IC50) worked out at 161 nM.

As to `CC(C)OC(=O)N1[C@H](C)C[C@H](NS(C)(=O)=O)[C@@H]1CO[C@H]1CC[C@@]2(c3ncc(F)cn3)C[C@H]2C1` (single isomer, unassigned) [Example 28], the 50% inhibitory concentration (IC50) came to 3.4 nM.

In the case of `CC(C)OC(=O)N1[C@H](C)C[C@H](NS(C)(=O)=O)[C@@H]1CO[C@@H]1CC[C@]2(c3ncc(F)cn3)C[C@@H]2C1` (single isomer, unassigned) [Example 29], the IC50 worked out at 8 nM.

For the compound `COC(=O)N1[C@H](C)C[C@H](NS(=O)(=O)C(F)F)[C@@H]1CO[C@H]1CC[C@@]2(c3ncccn3)C[C@H]2C1` (single isomer, unassigned) [Example 68], the IC50 is 1.5 nM.

Consider `COC(=O)N1[C@H](C)C[C@H](NS(=O)(=O)C(F)F)[C@@H]1CO[C@@H]1CC[C@]2(c3ncccn3)C[C@@H]2C1` (single isomer, unassigned) [Example 69], for which the IC50 was 20.4 nM.

Consider `COC(=O)N1[C@H](C)C[C@H](NS(=O)(=O)C(F)F)[C@@H]1CO[C@H]1CC[C@@]2(c3ncc(Cl)cn3)C[C@H]2C1` (single isomer, unassigned) [Example 78], for which the IC50 turned out to be 1.2 nM.

With `COC(=O)N1[C@H](C)C[C@H](NS(C)(=O)=O)[C@@H]1CO[C@@H]1CC[C@]2(c3ncc(F)cn3)C[C@@H]2C1` (single isomer, unassigned) [Example 136], the 50% inhibitory concentration (IC50) was 24.5 nM.

For the compound `COC(=O)N1[C@H](C)C[C@H](NS(C)(=O)=O)[C@@H]1CO[C@H]1CC[C@@]2(c3ncc(F)cn3)C[C@H]2C1` (single isomer, unassigned) [Example 137], the half-maximal inhibitory concentration (IC50) came to 1.4 nM.

For the compound `COC(=O)N1[C@H](C)C[C@H](NS(C)(=O)=O)[C@@H]1CO[C@@H]1CC[C@]2(c3ncc(Cl)cn3)C[C@@H]2C1` (single isomer, unassigned) [Example 141], the IC50 worked out at 86.4 nM.

Regarding `COC(=O)N1[C@H](C)C[C@H](NS(C)(=O)=O)[C@@H]1CO[C@H]1CC[C@@]2(c3ncc(Cl)cn3)C[C@H]2C1` (single isomer, unassigned) [Example 142], the half-inhibitory concentration (IC50) stood at 2.8 nM.

As for `COC(=O)N1[C@H](C)C[C@H](NS(C)(=O)=O)[C@@H]1CO[C@H]1CC[C@@]2(c3nccs3)C[C@H]2C1` (single isomer, unassigned) [Example 146], the half-inhibitory concentration (IC50) amounted to 50.7 nM.

`COC(=O)N1[C@H](C)C[C@H](NS(=O)(=O)N(C)C)[C@@H]1COC1CCC2(c3ncc(F)cn3)CC2C1` (single isomer, unassigned) [Example 167]: the Emax stood at 74.4% and the concentration for half-maximal inhibition (IC50) was found to be 575 nM.

Turning to `CC(C)OC(=O)N1[C@H](C)C[C@H](NS(=O)(=O)N(C)C)[C@@H]1CO[C@@H]1CC[C@]2(c3ncccn3)C[C@@H]2C1` (single isomer, unassigned) [Example 170], the half-inhibitory concentration (IC50) amounted to 5.2 nM.

As to `CC(C)OC(=O)N1[C@H](C)C[C@H](NS(=O)(=O)N(C)C)[C@@H]1CO[C@H]1CC[C@@]2(c3ncccn3)C[C@H]2C1` (single isomer, unassigned) [Example 171], the IC50 was 2.3 nM.

As for `COC(=O)N1[C@H](C)C[C@H](NS(=O)(=O)N(C)C)[C@@H]1COC1CCC2(c3cc(F)cc(F)c3)CC2C1` (stereo partly drawn) [Example 4, methyl (2R,3S,5R)-2-(((6-(3,5-difluorophenyl)bicyclo[4.1.0]heptan-3-yl)oxy)methyl)-3-((N,N-dimethylsulfamoyl)amino)-5-methylpyrrolidine-1-carboxylate], the 50% inhibitory concentration (IC50) was determined as 604 nM.

Turning to `COC(=O)N1[C@H](C)C[C@H](NS(=O)(=O)N(C)C)[C@@H]1COC1CCC2(c3ccc(C#N)cc3)CC2C1` (stereo partly drawn) [Example 5, methyl (2R,3S,5R)-2-(((6-(4-cyanophenyl)bicyclo[4.1.0]heptan-3-yl)oxy)methyl)-3-((N,N-dimethylsulfamoyl)amino)-5-methylpyrrolidine-1-carboxylate], the 50% inhibitory concentration (IC50) stood at 278 nM.

Take `COC(=O)N1[C@H](C)C[C@H](NS(=O)(=O)N(C)C)[C@@H]1COC1CCC2(c3ncccn3)CC2C1` (stereo partly drawn) [Example 6, methyl (2R,3S,5R)-3-((N,N-dimethylsulfamoyl)amino)-5-methyl-2-(((6-(pyrimidin-2-yl)bicyclo[4.1.0]heptan-3-yl)oxy)methyl)pyrrolidine-1-carboxylate]: the half-inhibitory concentration (IC50) came out at 0.94 nM.

As to `COC(=O)N1[C@H](C)C[C@H](NS(=O)(=O)N(C)C)[C@@H]1COC1CCC2(c3ncccn3)C(C1)C2(F)F` (stereo partly drawn) [Example 7, methyl (2R,3S,5R)-2-(((7,7-difluoro-6-(pyrimidin-2-yl)bicyclo[4.1.0]heptan-3-yl)oxy)methyl)-3-((N,N-dimethylsulfamoyl)amino)-5-methylpyrrolidine-1-carboxylate], the 50% inhibitory concentration (IC50) was found to be 9390 nM.

Take `COC(=O)N1[C@H](C)C[C@H](NS(=O)(=O)N(C)C)[C@@H]1COC1CCC2(c3ccccn3)CC2C1` (stereo partly drawn) [Example 9, methyl (2R,3S,5R)-3-((N,N-dimethylsulfamoyl)amino)-5-methyl-2-(((6-(pyridin-2-yl)bicyclo[4.1.0]heptan-3-yl)oxy)methyl)pyrrolidine-1-carboxylate]: the IC50 stood at 28.8 nM.

With `COC(=O)N1[C@H](C)C[C@H](NS(=O)(=O)N(C)C)[C@@H]1COC1CCC2(c3cnccn3)CC2C1` (stereo partly drawn) [Example 10, methyl (2R,3S,5R)-3-((N,N-dimethylsulfamoyl)amino)-5-methyl-2-(((6-(pyrazin-2-yl)bicyclo[4.1.0]heptan-3-yl)oxy)methyl)pyrrolidine-1-carboxylate], the half-inhibitory concentration (IC50) stood at 323 nM.

The record behind these values is US20230365533A1, “BICYCLOHEPTANE PYRROLIDINE OREXIN RECEPTOR AGONISTS” (MERCK SHARP & DOHME CORP., priority 2021, published 2023).
